Data reported in ChEMBL document CHEMBL4184307, “Identification of caffeoylquinic acid derivatives as natural protein tyrosine phosphatase 1B inhibitors from Artemisia princeps” (Bioorg Med Chem Lett, 2018).

What was measured:
[1] = molecular target: T1, Tyrosine-protein phosphatase non-receptor type 1 (Homo sapiens) (UniProt P18031); assay: (§1) Inhibition of PTP1B (unknown origin)
T1 sequence (whole entry): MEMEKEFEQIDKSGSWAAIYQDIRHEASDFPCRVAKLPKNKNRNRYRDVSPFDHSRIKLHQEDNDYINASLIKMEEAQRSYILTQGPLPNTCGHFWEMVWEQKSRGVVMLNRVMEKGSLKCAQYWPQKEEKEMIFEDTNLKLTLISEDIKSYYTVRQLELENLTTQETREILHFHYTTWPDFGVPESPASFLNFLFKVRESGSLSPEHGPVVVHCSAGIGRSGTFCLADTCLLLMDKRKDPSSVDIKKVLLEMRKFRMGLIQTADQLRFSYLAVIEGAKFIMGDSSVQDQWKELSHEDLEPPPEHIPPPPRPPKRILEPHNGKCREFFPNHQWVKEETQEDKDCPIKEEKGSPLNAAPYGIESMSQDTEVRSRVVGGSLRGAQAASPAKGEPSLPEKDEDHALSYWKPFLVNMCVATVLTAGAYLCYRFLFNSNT

[2] = molecular target: T2, Tyrosine-protein phosphatase non-receptor type 1 (Homo sapiens, UniProt P18031); assay: as §1
T2 sequence (P18031 whole entry): T1 sequence (whole entry)

[3] = molecular target: T3, Tyrosine-protein phosphatase non-receptor type 2 (Homo sapiens) (UniProt P17706); assay: Inhibition of TCPTP (unknown origin) at 100 uM relative to control
T3 sequence (whole entry): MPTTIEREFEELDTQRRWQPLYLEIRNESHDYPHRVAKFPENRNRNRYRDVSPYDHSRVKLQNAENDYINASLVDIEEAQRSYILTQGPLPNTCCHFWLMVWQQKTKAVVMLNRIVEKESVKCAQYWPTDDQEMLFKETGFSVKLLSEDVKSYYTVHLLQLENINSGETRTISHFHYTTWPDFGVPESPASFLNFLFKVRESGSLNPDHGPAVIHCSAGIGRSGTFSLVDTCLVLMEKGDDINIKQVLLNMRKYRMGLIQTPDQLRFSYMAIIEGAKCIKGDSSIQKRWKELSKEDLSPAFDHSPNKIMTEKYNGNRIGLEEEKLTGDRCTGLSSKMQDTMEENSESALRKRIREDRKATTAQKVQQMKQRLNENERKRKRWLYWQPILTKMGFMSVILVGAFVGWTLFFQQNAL

[4] = molecular target: Tyrosine-protein phosphatase non-receptor type 6 (Homo sapiens) (UniProt P29350); assay: Inhibition of SHP1 (unknown origin) at 100 uM relative to control
[5] = molecular target: T4, Tyrosine-protein phosphatase non-receptor type 11 (Homo sapiens) (UniProt Q06124); assay: Inhibition of SHP2 (unknown origin) at 100 uM relative to control
T4 sequence (whole entry): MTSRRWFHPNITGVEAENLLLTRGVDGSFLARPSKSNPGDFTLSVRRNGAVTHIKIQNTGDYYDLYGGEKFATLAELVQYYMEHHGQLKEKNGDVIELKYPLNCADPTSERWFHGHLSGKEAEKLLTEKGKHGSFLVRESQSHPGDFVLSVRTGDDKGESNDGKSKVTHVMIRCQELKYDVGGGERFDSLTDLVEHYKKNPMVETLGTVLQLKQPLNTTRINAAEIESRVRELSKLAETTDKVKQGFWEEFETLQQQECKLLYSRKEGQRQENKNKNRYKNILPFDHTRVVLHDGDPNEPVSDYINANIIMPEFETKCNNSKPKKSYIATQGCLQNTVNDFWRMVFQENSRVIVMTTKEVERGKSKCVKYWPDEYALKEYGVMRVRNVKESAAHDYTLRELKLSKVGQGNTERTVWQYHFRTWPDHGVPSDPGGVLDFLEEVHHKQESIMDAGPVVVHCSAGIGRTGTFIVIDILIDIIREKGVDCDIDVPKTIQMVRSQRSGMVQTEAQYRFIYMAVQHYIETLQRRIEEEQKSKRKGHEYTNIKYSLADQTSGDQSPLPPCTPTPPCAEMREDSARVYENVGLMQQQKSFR

[6] = molecular target: Dual specificity protein phosphatase 3 (Homo sapiens) (UniProt P51452); assay: Inhibition of VHR (unknown origin) at 100 uM relative to control
[7] = molecular target: T1, Tyrosine-protein phosphatase non-receptor type 1 (Homo sapiens); assay: Inhibition of PTP1B (unknown origin) at 100 uM relative to control
[8] = molecular target: T5, Tyrosine-protein phosphatase non-receptor type 2 (Homo sapiens, UniProt P17706); assay: Inhibition of TCPTP (unknown origin)
T5 sequence (P17706 whole entry): T3 sequence (whole entry)

Chain of Tyrosine-protein phosphatase non-receptor type 6 (Homo sapiens) (P29350 whole entry): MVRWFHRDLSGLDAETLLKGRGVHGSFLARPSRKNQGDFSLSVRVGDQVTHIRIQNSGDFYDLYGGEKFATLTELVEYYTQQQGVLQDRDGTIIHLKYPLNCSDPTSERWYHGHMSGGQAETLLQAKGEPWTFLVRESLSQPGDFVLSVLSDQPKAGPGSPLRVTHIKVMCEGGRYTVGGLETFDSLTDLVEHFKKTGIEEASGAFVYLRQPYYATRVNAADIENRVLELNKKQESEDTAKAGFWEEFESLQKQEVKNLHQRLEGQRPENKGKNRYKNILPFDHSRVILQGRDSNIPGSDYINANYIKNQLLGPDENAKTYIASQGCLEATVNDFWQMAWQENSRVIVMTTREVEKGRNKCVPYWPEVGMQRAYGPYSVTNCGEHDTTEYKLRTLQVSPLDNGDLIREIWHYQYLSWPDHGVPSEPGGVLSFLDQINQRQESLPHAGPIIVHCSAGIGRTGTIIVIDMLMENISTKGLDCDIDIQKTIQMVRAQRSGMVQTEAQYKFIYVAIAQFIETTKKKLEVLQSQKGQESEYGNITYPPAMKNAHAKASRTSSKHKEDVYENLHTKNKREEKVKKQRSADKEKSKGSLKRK
Chain of Dual specificity protein phosphatase 3 (Homo sapiens) (P51452 whole entry, looked up): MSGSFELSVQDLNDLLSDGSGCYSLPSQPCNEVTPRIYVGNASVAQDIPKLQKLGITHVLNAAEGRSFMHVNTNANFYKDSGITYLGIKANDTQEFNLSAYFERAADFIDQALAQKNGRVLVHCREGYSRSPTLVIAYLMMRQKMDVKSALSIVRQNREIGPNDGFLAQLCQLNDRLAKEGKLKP

| SMILES | inhibition [1] | IC50 [2] [µM] | also measured |
| --- | --- | --- | --- |
| COc1cc(/C=C/C(=O)O[C@H]2[C@H](O)C[C@](O)(C(=O)O)C[C@H]2OC(=O)/C=C/c2ccc(O)c(OC)c2)ccc1O | Dose-dependent effect | 67.1 | – |
| COC(=O)[C@]1(O)C[C@@H](OC(=O)/C=C/c2ccc(O)c(O)c2)[C@@H](O)[C@H](OC(=O)/C=C/c2ccc(O)c(O)c2)C1 | Dose-dependent effect | 42.7 | – |
| O=C(/C=C/c1ccc(O)c(O)c1)O[C@H]1[C@H](O)C[C@](O)(C(=O)O)C[C@H]1O | Dose-dependent effect | 43.9 | – |
| O=C(/C=C/c1ccc(O)c(O)c1)O[C@H]1[C@H](O)C[C@](O)(C(=O)O)C[C@H]1OC(=O)/C=C/c1ccc(O)c(O)c1 | Dose-dependent effect | 59.4 | – |
| O=C(/C=C/c1ccc(O)c(O)c1)O[C@@H]1C[C@](OC(=O)/C=C/c2ccc(O)c(O)c2)(C(=O)O)C[C@@H](O)[C@H]1O [1,5-O-TRANS-DICAFFEOYLQUINIC ACID] | Dose-dependent effect | 35.4 | – |

The next lines start with results.

| inhibition [1] | IC50 [2] [µM] | SMILES | also measured |
| --- | --- | --- | --- |
| Dose-dependent effect | 56 | COC(=O)[C@]1(O)C[C@@H](O)[C@@H](OC(=O)/C=C/c2ccc(O)c(O)c2)[C@H](OC(=O)/C=C/c2ccc(O)c(O)c2)C1 | – |
| Dose-dependent effect | 37.9 | O=C(/C=C/c1ccc(O)c(O)c1)O[C@@H]1C[C@](O)(C(=O)O)C[C@@H](OC(=O)/C=C/c2ccc(O)c(O)c2)[C@H]1O | – |
| Dose-dependent effect | – | O=C(/C=C/c1ccc(O)c(O)c1)O[C@@H]1C[C@](O)(C(=O)O)C[C@@H](O)[C@H]1O [CHLOROGENIC ACID] | inhibition [3]: 65.6%; inhibition [4]: 32%; inhibition [5]: 28.4%; inhibition [6]: 30.5%; inhibition [7]: 83.1%; IC50 [8]: 77.9 µM |
| Dose-dependent effect | 41.5 | O=C(/C=C/c1ccc(O)c(O)c1)O[C@@H]1[C@H](O)C[C@@](O)(C(=O)O)C[C@H]1OC(=O)/C=C/c1ccc(O)c(O)c1 | – |
| Dose-dependent effect | – | O=C(/C=C/c1ccc(O)c(O)c1)O[C@@H]1C[C@@](O)(C(=O)O)C[C@@H](O)[C@@H]1O | – |
